What was measured:
staphylococcus aureus = assay: Prevention of adhesion of pathogenic germs to human uroepithelial cells; assay type: cell-based; conditions: human uroepithelial cells pre-incubated 1, 2 or 3 hours, various concentrations
Description: (§1) For this test, human uroepithelian cells obtained by centrifugation from morning urine as well as two strains of staphylococcus aureus and E. coli were used, each as a suspension with 10^9 germs/mL.
(§2) Epithelial cells and germ suspension were incubated together at 37° C. for 30 minutes. The epithelial cells then were separated from the non-adherent germs by membrane filtration (8μ). The filters were washed several times, placed into normal saline, and the epithelial cells were suspended in it. After centrifugation of the suspension in saline, the pellet was applied to slides and stained according to May-Grünwald and Giemsa. The number of germs adhering to 50 epithelial cells were counted. This number represented the blank value. Epithelial cells to which no germ solution had been added were used as a control.
(§3) In the main test, epithelial first were incubated with aqueous solutions of various concentrations consisting of pectin hydrolysis products produced according to the invention (according to Example 1) for 1, 2 or 3 hours. They were then combined with the germ suspension and treated further as described above. The measuring value was obtained by counting the germs adhering to 50 epithelial cells.

E. coli [1] = assay: as above; assay type: cell-based; conditions: human uroepithelial cells pre-incubated 1, 2 or 3 hours, various concentrations
Description: as §1, §2, §3

E. coli [2] = conditions: from EP 0 716 605 B1; cited from earlier work
[3] = target: T1, galectin-3 on Caco-2 colon cancer cells (Homo sapiens, UniProt P17931); assay: Inhibition of anti-galectin-3 monoclonal antibody binding, immunofluorescence/flow cytometry
T1 construct: endogenous in cells; host or cells: Caco-2 human colon cancer cells
T1 sequence (P17931 whole entry): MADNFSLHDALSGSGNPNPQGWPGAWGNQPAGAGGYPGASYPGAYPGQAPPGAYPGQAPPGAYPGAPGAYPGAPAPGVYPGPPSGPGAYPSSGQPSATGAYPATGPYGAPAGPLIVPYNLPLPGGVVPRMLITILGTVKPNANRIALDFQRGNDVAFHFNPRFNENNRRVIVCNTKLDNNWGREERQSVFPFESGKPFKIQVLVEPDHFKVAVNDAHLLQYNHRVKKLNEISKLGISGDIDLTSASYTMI
Description: (§4) The expression of galectin-3 on colon cancer cells was determined with immunofluorescence/flow cytometry methods using an anti-galectin-3-specific monoclonal antibody (mouse-Ig) and a corresponding anti-mouse FITC-coupled secondary antibody.

[4] = target: T2, galectin-3 on HT 29 colon cancer cells (Homo sapiens, UniProt P17931); assay: as above
T2 construct: endogenous in cells; host or cells: HT-29 (HT 29) human colon cancer cells
T2 sequence (P17931 whole entry): as above
Description: as §4

Caco-2 cells = system: Caco-2 cells
Source text: The test is based on the migration of cells through the pores of a nucleopore polycarbonate filter in a protein gel that contains several ECM proteins, such as, for example, type 1 and type III collagen, fibronectin, and laminin, to a nitrocellulose filter. […] As a control, the effect of glucose on the invasive capacity of Caco-2 cells was studied.

Caco-2 = assay: Growth of colon cancer cell lines on extracellular matrix (ECM), living cell count by trypan blue; assay type: cell-based, human; conditions: for Reduction in Cell Growth: 48 hours
Description: (§5) Human colon cancer cell lines HT-29 or Caco-2 were seeded with a cell density of 1×10^4 cells/ml in 15 mm Petri dishes and cultivated in medium RPMI 1640+10% fetal calf serum (FCS) (HT-29) or, respectively, in MEM+10% FCS (Caco-2) at 37° C. under an atmosphere containing 5% CO2. The cells were left to grow for 1 to 2 days until reaching confluence. The dishes were then washed once with PBS, then incubated with PBS and 0.5% Triton X-100 for 30 minutes at room temperature on an agitator, and then washed 3 times with PBS. The previously described cell lines then were again seeded on the dishes with the ECM layers prepared in this way. The influence of the pectin hydrolysate on cell growth was determined by counting the cells. For this, the cells were again removed after 48 hours with trypsine/EDTA solution in HBBS (10 min) and were washed in PBS solution. Then the number of living cells was determined by staining with trypan blue solution (650 mg trypan blue in 400 ml 0.9% NaCl, 1:1 (v/v)) in a Neubauer counting chamber. As a control, experiments were performed with glucose.

HT-29 = assay: as above; assay type: cell-based, human; conditions: for Reduction in Cell Growth: 48 hours
Description: as §5

[5] = Caco-2, in relation to the concentration used
[6] = HT 29, in relation to the concentration used

OC[C@H]1O[C@H](O[C@]2(CO)O[C@H](CO[C@H]3O[C@H](CO)[C@@H](O)[C@H](O)[C@H]3O)[C@@H](O)[C@@H]2O)[C@H](O)[C@@H](O)[C@@H]1O [isomelezitose]
blockage of germ adhesion to the epithelial cells (staphylococcus aureus): No reduction
blockage of germ adhesion to the epithelial cells (E. coli [1]): No reduction

O=C(O)[C@H]1O[C@H](O[C@@H]2[C@H](O)[C@@H](O)[C@@H](O)O[C@@H]2C(=O)O)[C@H](O)[C@@H](O)[C@H]1O [digalacturonide]
blocking of the adhesion (E. coli [2]): ≤ 91.7%

OC[C@H]1O[C@@](CO)(OC[C@@]2(OC[C@@]3(O[C@H]4O[C@H](CO)[C@@H](O)[C@H](O)[C@H]4O)O[C@H](CO)[C@@H](O)[C@@H]3O)O[C@H](CO)[C@@H](O)[C@@H]2O)[C@@H](O)[C@@H]1O [nystose]
blockage of germ adhesion to the epithelial cells (staphylococcus aureus): No reduction
blockage of germ adhesion to the epithelial cells (E. coli [1]): No reduction

O=C(O)[C@H]1O[C@H](O[C@@H]2[C@H](O)[C@@H](O)[C@@H](O[C@@H]3[C@H](O)[C@@H](O)C(O)O[C@@H]3C(=O)O)O[C@@H]2C(=O)O)[C@H](O)[C@@H](O)[C@H]1O (some centres unmarked) [trigalacturonide]
blocking of the adhesion (E. coli [2]): ≤ 84.6%

O=C[C@H](O)[C@@H](O)[C@H](O)[C@H](O)CO [Glucose, glucose]
Reduction of Binding Monoclonal Anti-Galectin-3 Antibody ([3]; Caco-2, concentration 0.01%): 0
Reduction of Binding Monoclonal Anti-Galectin-3 Antibody ([3]; Caco-2, concentration 0.1%): 0
Reduction of Binding Monoclonal Anti-Galectin-3 Antibody ([3]; Caco-2, concentration 1.0%): 0
reduction of the binding of the monoclonal anti-galectin-3 antibody (Table 3) [3, 5]: not at all or only slightly
Reduction of Binding Monoclonal Anti-Galectin-3 Antibody ([4]; HT 29, concentration 0.01%): 0
Reduction of Binding Monoclonal Anti-Galectin-3 Antibody ([4]; HT 29, concentration 0.1%): 0
Reduction of Binding Monoclonal Anti-Galectin-3 Antibody ([4]; HT 29, concentration 1.0%): 2
reduction of the binding of the monoclonal anti-galectin-3 antibody (Table 3) [4, 6]: not at all or only slightly
reduction of the invasive capacity of Caco-2 cells (text summary of Table 2) (Caco-2 cells): only caused a slight reduction
Reduction in Cell Growth (Caco-2; Caco-2, concentration 0.01%): 0%
Reduction in Cell Growth (Caco-2; Caco-2, concentration 0.1%): 0%
Reduction in Cell Growth (Caco-2; Caco-2, concentration 1.0%): 0%
reduced cell growth (text summary of Table 1) (Caco-2; [5]): no influence
Reduction in Cell Growth (HT-29; HT 29, concentration 0.01%): 0%
Reduction in Cell Growth (HT-29; HT 29, concentration 0.1%): 1%
Reduction in Cell Growth (HT-29; HT 29, concentration 1.0%): 0%
reduced cell growth (text summary of Table 1) (HT-29; [6]): no influence

O=C(O)[C@H]1OC(O)[C@H](O)[C@@H](O)[C@H]1O (some centres unmarked) [monogalacturonic acid]
blocking of the adhesion (E. coli [2]): no blocking

OC[C@H]1O[C@H](OC[C@H]2O[C@H](O[C@]3(CO)O[C@H](CO)[C@@H](O)[C@@H]3O)[C@H](O)[C@@H](O)[C@@H]2O)[C@H](O)[C@@H](O)[C@H]1O [raffinose]
blockage of germ adhesion to the epithelial cells (staphylococcus aureus): No reduction
blockage of germ adhesion to the epithelial cells (E. coli [1]): No reduction
